Laboratory results: patent US10913871B2, “Ink composition, method for producing the same, and image-forming method” (FUJIFILM CORPORATION, priority 2017, dated 2021)

Assay: Solubility in water of specified hydrophobic compound or comparative compound
Type: physicochemical
Conditions: water at 25° C.
Method: Specifically, a Erlenmeyer flask is charged with 20 g of the test substance and 80 g of water, and shaken at 25° C. for 24 hours. The resultant solution is filtered through a 5 μm membrane filter, to obtain filtrate. The obtained filtrate (5 g) is evaporated to dryness at 100° C. for 3 hours. From the mass of the residual, the content (mass %) of the test substance dissolved in the filtrate relative to the total amount of the filtrate is calculated. The calculated content (mass %) is defined as the solubility in water of the test substance.
Specifically, an Erlenmeyer flask is charged with 100 g of water; while the internal temperature is maintained at 25° C., the test substance is gradually dropped. The dropping is ended when visual observation finds cloudiness in the liquid within the Erlenmeyer flask. The mass (mass %) of the test substance dropped until the end of the dropping relative to the total mass of the liquid within the Erlenmeyer flask is defined as the solubility in water of the test substance.

| SMILES | Solubility in water [mass %] |
| --- | --- |
| CCCCCCCCCCC(CO)CCCCCCCC (stereo not drawn) [2-Octyldodecanol] | <1 |
| CCCCCCCCCCCCCCCCCC(=O)OC [EXCEPARL MS] | <1 |
| CCCCCCCCCCCCCCCCCCCCCCO [Example 1-Docosanol, 1-Docosanol] | <1 |
| CCCCCCCCCCCCCCCCCCCCO [Example 1-Eicosanol, 1-Eicosanol] | <1 |

Further lines, results first:

| Solubility in water [mass %] | SMILES |
| --- | --- |
| <1 | CCCCCCCCO [Example 1-Octanol, 1-Octanol] |
| <1 | CCCCCCCCCCCCCCCCCCO [Stearyl alcohol] |
